Reference: US20240261273A1 (PRILENIA NEUROTHERAPEUTICS LTD., priority 2021, published 2024)

Legend:
Sigma-1 Receptor (S1R) = Sigma-1 Receptor (S1R) (Homo sapiens (Human), UniProt Q99720); experiment: In-vitro binding assay, Sigma-1 receptor (Eurofins Panlabs); details: Cheng Prusoff equation
[1] = test system: optic nerve head astrocytes (ONHA); experiment: ONHA oxidative stress (ROS) after tBHP, DCF fluorescence; type: cell-based, rat; details: 0.05 μM alone, 16 h, then tBHP 80 μM 6 h
Experimental: CM-H2DCFDA is cleaved to form non-fluorescent H2DCF, which is then oxidized to form the fluorescent DCF. DCF levels are indicative of ROS. Cell viability was also assessed using the commonly used colorimetric MTT assay.

[2] = test system: optic nerve head astrocytes (ONHA); experiment: ONHA cell viability after tBHP oxidative stress, MTT assay; details: 16 h, then tBHP 40 μM 6 h
Experimental: Cell viability was assessed using the MTT colorimetric assay.

B104 neuroblastoma cells = details: in-situ ELISA; Geva et al. 2016; cited from earlier work
RGCs = details: two experimental glaucoma models, elevated IOP

Chain of Sigma-1 Receptor (S1R) (Q99720 whole entry, species assumed): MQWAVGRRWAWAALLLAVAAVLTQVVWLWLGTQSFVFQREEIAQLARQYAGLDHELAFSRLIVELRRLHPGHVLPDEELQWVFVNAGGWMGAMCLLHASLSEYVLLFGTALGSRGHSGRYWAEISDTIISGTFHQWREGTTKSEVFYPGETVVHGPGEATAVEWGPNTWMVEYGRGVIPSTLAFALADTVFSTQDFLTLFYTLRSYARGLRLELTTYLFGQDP

Structure (SMILES)	S1R Ki (Sigma-1 Receptor (S1R))	reduction of oxidative stress (DCF fluorescence) [1]	increase in cell viability ([2]; 0.01 μM alone)	increase in cell viability ([2]; 0.1 μM alone)	BDNF secretion in rat neuroblastoma cells (B104 neuroblastoma cells)	effect on RGCs (RGCs)	relation of protective effect to IOP (RGCs)
CCCN1CCC(O)(c2cccc(S(C)(=O)=O)c2)CC1 [Compound 1]	high affinity	5%	neither pridopidine (0.05 μM) nor compound 1 (0.01 μM) have any effect				
CCCN1CC[C@@H](c2cccc(S(C)(=O)=O)c2)[C@@H](O)C1 [Compound 4]	high affinity			neither pridopidine (0.05 μM) nor compound 4 (0.1 μM) have any effect			
CCCN1CCC(c2cccc(S(C)(=O)=O)c2)CC1 [Pridopidine, 4-(3-(Methylsulfonyl)phenyl)-1-propylpiperidine]		30%			dose dependent increase	neuroprotective effect	not mediated by lowering IOP
